Experimental findings from article PMC6158327, “Negative Allosteric Modulators of mGlu7 Receptor as Putative Antipsychotic Drugs” (Frontiers in Molecular Neuroscience, 2018) are described below.

Molecules are shown by their SMILES.

In series [1] the target is T1, mGlu7 receptor (Homo sapiens, UniProt Q14831).
T1 construct: expressed in transfected cells
Description: HTRF cAMP assay: antagonism of L-Glu (EC80) inhibition of forskolin-stimulated cAMP accumulation (NAM profile). The format is cell-based. Conditions: HEK 293 T-REx cells expressing mGlu7; 6.26 mM L-Glu (EC80); 5 μM forskolin; n = 3; read-out: IC50, antagonism of L-Glu inhibition of cAMP accumulation in the presence of forskolin. The protocol:
A homogeneous time-resolved fluorescence (HTRF) cAMP dynamic 2 (Cisbio, Codolet, France) assay was performed as previously described ([Chruścicka et al., 2015]) with recombinant cell lines. Briefly, HEK 293 T-REx cells stably expressing mGlu7 receptor, were collected and suspended in Hanks-HEPES buffer. The cell suspension was added to compounds solution with 5 μM of forskolin (final concentration). After 5 min incubation in 37°C, 5 μl of cAMP-d2 conjugate in lysis buffer was added and mixed with the 10 μl cell suspension by means of an automated pipetting system (Tecan Evo 200, Tecan, Mannedorf, Switzerland). Next, 5 μl anti-cAMP cryptate conjugate was added and the fluorescence at 620 and 665 nm was read after 1 h (Tecan Infinite M1000). The results are shown as the 665 nm/620 nm ratio multiplied by 10^4. The detected signal was inversely proportional to the concentration of cAMP in the sample. […] Each experiment was performed three times (n = 3), and each data point was in triplicate.

Series [2] concerns field potentials in frontal cortical slices. Description: Electrophysiology: field potentials in frontal cortical slices, WILD mice. The note with it: for Before-after effect of the drug on FP amplitude: WILD group; for S (factor proportional to the slope of the curve) / Uh (stimulation intensity evoking FP of half-maximum amplitude) / Vmax (maximum FP amplitude, Boltzmann fit): slices from WILD mice, after 20 min drug superfusion. Details: species or system C57BL/6J WT mice. An excerpt:
Mice (wild and KO, approx. 25 g) were housed under a controlled light/dark cycle (light on: 0700–1900) and had free access to standard food and tap water. Mice were anesthetized with isoflurane (Aerrane, Baxter) decapitated, their brains were dissected and immersed in an ice-cold artificial cerebrospinal fluid (ACSF) of the following composition (in mM): NaCl (130), KCl (5), CaCl2 (2.5), MgSO4 (1.3), KH2PO4 (1.25), NaHCO3 (26), and glucose (10), bubbled with a mixture of 95% O2/5% CO2 to pH 7.4. Frontal cortical slices (bregma 1.9–1.4, 380 μm) were cut in a coronal plane using a vibrating microtome and they were stored at 32°C. A single slice was next transferred to the recording chamber (32°C ± 0.5°C) and superfused at 2.5 ml/min with a ACSF.
A bipolar stimulating electrode (FHC) was placed approx. 2 mm lateral to the midline and approx. 1.0 mm below the pial surface (in layer V) (Figure 1). Stimuli (duration: 0.2 ms) were applied at 0.033 Hz using a constant-current stimulus isolation unit (WPI). Field potentials (FPs) were recorded using glass micropipettes filled with ACSF (1–3 MΩ), which were placed approx. 0.2 mm below the cortical surface (in layer II/III). FPs were amplified (Axoprobe 1A, Axon Instruments), A/D converted at 10 kHz and stored using Micro1401 interface and Signal 4 software (CED).
The stimulus–response curves obtained for each slice were fit with the Boltzmann equation: Vi = Vmax/(1 + exp[(u - Uh)/-S]), where Vmax is the maximum FP amplitude; u is the stimulation intensity; Uh is the stimulation intensity evoking FP of half-maximum amplitude; S is the factor proportional to the slope of the curve; “exp” is exponentiation – mathematical operation. The results are expressed as the means ± SEM. Statistical analyses were carried out using t-test ([Tokarski et al., 2011]).
For each slice, at the beginning of the experiment an input-output curve was generated in ACSF. A stimulus-response (input-output) curve was made for each slice. […] One response was recorded at each stimulation intensity. […] Statistical analyzes were carried out using paired t-test and ANOVA.

The test system of series [3] is DOI-induced head twitches. Description: DOI-induced head twitches. In kind it is in vivo, Albino Swiss mice. The note with it: mice; for Effect on DOI-induced head twitches, acute: 30 min before DOI (2.5 mg/kg). Here is the method: The experiment was performed according to previously described procedure ([Wierońska et al., 2012], [2013]). Immediately after a 30 min acclimatization period, DOI (2.5 mg/kg, i.p.) was administered in order to induce head twitches. The number of head twitches was then counted for 20 min. […]

Series [4] deals with MK-801-induced hyperactivity. Description: MK-801-induced hyperactivity. The format is in vivo, Albino Swiss mice. The note with it: 30 min prior to MK-801 (0.35 mg/kg, i.p.), mice. Here is the method: The locomotor activity was recorded individually for each animal in OPTO-M3 locomotor activity cages (Columbus Instrument) linked online to a compatible PC activity, as described previously by [Woźniak et al., 2016b]. Each cage (13 cm × 23 cm × 15 cm) was surrounded with an array of photocell beams. […] The locomotor activity was measured for 60 min immediately after MK-801 administration.

Series [5] is described as follows: Metabolic stability (microsomes, mice). The format is in vitro ADME. Conditions: for microsomal CLint: mouse, liver microsomes.
The test system of series [6] is prepulse-induced inhibition of the acoustic startle response. Description: Prepulse inhibition of the acoustic startle response. In kind it is in vivo, Wistar rats. The note with it: rats; for Effect on MK-801-induced disruption of prepulse inhibition: 30 min prior to MK-801 (0.3 mg/kg). Here is the method:
The procedure was performed according to [Czyrak et al., 2003]. On the day before the experiment, the animals were subjected to a single startle session consisting of two trials, each presented 20 times during the session. During the first trial, a 120 dB, 40 ms pulse was presented, and on the second trial this pulse was preceded by a 75 dB, 20 ms prepulse. On the day of the experiment, the animals were habituated to the background white noise (65 dB) for 5 min (which continued throughout the test), after that the startle session was carried out as described above. Startle response amplitude was defined as the difference between the maximum force detected during a recording window and the force measured immediately before the stimulus onset (the threshold was set at 10 g). For each animal, the amplitudes were averaged separately for each type of trial. The PPI was calculated as the difference between the amplitudes of the pulse (P) and the prepulse + pulse (PP+P), divided by the amplitude of the pulse alone [([P - (PP + P)]/P)×100].

For series [7], the target named is Cytochrome P450 2D6 (Homo sapiens, UniProt P10635). Description: Cytochrome P450 inhibition, 2D6. In kind it is in vitro ADME.
Sequence of Cytochrome P450 2D6 (P10635 whole entry): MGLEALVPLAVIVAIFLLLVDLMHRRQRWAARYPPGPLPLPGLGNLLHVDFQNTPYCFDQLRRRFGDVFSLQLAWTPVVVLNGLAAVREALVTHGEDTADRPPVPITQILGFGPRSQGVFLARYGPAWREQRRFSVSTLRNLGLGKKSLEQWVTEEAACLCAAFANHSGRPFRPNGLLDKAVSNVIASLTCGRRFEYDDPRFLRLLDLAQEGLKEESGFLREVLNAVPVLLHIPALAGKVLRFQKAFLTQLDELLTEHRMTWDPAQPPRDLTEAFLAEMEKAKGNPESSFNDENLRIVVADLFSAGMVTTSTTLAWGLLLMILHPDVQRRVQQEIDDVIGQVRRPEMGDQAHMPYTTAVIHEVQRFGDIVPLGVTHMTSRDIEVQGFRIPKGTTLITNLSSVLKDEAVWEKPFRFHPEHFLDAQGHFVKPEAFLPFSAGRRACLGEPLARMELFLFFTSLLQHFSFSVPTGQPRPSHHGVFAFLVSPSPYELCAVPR
Series [8] deals with rotarod performance. Description: Rotarod test (motor coordination). In kind it is in vivo, Albino Swiss mice. Conditions: 5, 15, and 30 mg/kg i.p., 30 min before the test trial, mice. Here is the method:
The animals were trained for 3 consecutive days at the speed of 18 rpm, one session per day for 3 min. If a mice fell during the habituation period, it was placed back on the apparatus. On the following day, the test trial was performed. After the mice were placed on the apparatus (Mouse Rota-Rod NG, UGO BASILE S.R.L.) moving at the speed of 12 rpm, the accelerating mode was started (maximum speed – 24 rpm). The latency to fall was measured during 3-min test session.

T1 sequence (Q14831 35-915): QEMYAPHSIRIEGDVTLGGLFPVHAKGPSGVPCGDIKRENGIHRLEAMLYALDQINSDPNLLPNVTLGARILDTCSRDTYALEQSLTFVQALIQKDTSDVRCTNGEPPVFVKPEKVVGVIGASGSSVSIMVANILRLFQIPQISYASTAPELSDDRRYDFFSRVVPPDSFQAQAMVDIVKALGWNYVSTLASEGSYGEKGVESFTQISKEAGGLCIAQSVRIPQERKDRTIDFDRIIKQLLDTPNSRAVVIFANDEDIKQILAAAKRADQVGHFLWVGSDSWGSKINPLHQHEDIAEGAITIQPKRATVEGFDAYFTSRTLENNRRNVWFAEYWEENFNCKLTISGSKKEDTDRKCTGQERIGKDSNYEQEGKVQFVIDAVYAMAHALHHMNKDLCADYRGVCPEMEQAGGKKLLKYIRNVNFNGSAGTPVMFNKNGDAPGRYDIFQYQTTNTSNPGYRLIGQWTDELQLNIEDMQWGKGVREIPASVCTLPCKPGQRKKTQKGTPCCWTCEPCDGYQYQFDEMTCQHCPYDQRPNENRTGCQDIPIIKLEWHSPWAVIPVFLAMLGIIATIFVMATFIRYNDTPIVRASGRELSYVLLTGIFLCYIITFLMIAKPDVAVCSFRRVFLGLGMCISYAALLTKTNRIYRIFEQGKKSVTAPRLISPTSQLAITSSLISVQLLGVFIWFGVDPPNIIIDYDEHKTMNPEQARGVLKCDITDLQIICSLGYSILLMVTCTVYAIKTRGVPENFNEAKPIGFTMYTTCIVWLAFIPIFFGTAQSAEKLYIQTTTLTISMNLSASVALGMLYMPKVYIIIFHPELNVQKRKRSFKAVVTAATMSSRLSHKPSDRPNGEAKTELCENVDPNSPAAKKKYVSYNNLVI

As to `CCc1nc2c(o1)CC(c1ccc(C)cc1C)CC2=O` (centres unmarked) [ADX71743, 6-(2,4-Dimethylphenyl)-2-ethyl-6,7-dihydro-4(5H)-benzoxazolone], in series [1], the IC50 is 440 nM. Further, in series [2], the “Before-after effect of the drug on FP amplitude” value is reported as 116%; the “S (factor proportional to the slope of the curve)” value came out at 6.53 ± 0.3; the “Uh (stimulation intensity evoking FP of half-maximum amplitude)” value amounted to 26.07 ± 1.3; the “Vmax (maximum FP amplitude, Boltzmann fit)” value is listed as 2.531 ± 0.1^∗∗∗. In addition, the “Effect on DOI-induced head twitches, chronic (10 days) administration” value (“Effect … (10 days) administration” for short) in series [3] (2.5 mg/kg) was “statistical effect”. For the same compound, in series [3] (5 mg/kg), the “Effect … (10 days) administration” value is listed as “statistical effect”. Further, in series [4] (5 mg/kg i.p.), the “Effect on MK-801-induced hyperactivity” value is “decreased MK-801-induced hyperactivity in a statistically significant way”. Moreover, the “Effect on MK-801-induced hyperactivity” value in series [4] (15 mg/kg i.p.) is “decreased MK-801-induced hyperactivity in a statistically significant way”. Further, in series [5], the “Metabolic stability (microsomes, mice)” value came to 0.01 and the microsomal CLint turned out to be 500 µL/min/mg. For the same compound, the “Effect on MK-801-induced disruption of prepulse inhibition” value in series [6] (2.5 mg/kg) was “inhibited MK-801-induced disruption in PPI”. In addition, in series [7], the IC50 is > 10 µM. For the same compound, the “Motor impairments in the rotarod test (latency to fall)” value in series [8] is “did not induce detectable motor impairments”.
As to `COc1ccc(-c2cc3onc(-c4ccncc4)c3c(=O)n2C)cc1` [MMPIP, 6-(4-Methoxyphenyl)-5-methyl-3-(4-pyridinyl)-isoxazolo(4,5-c)pyridin-4(5H)-one], the IC50 was 380 nM in series [1] and > 10 µM in series [7]. For the same compound, in series [2], the “Before-after effect of the drug on FP amplitude” value is recorded as 123%. Also, the “Before-after effect, WILD group higher than KO animals” value in series [2] (WILD vs. KO) was “about 23%”. Also, the “S (factor proportional to the slope of the curve)” value in series [2] is on record as 9.37 ± 0.83. The “Uh (stimulation intensity evoking FP of half-maximum amplitude)” value in series [2] came out at 26.93 ± 1.6. Besides, the “Vmax (maximum FP amplitude, Boltzmann fit)” value in series [2] is 2.53 ± 0.3^∗∗∗. The “Effect on DOI-induced head twitches, acute” value in series [3] (5 mg/kg i.p.), in series [3] (10 mg/kg i.p.) and in series [3] (15 mg/kg i.p.) was “significantly reduced DOI-induced head twitches” throughout. The “Effect … (10 days) administration” value in series [3] (5 mg/kg) and in series [3] (10 mg/kg) was “statistically significant effect” each time. In addition, the “Effect on MK-801-induced hyperactivity” value in series [4] (15 mg/kg i.p.) is “significant reversal of MK-801-induced effect”. Also, the “Metabolic stability (microsomes, mice)” value in series [5] is given as 49.78. The compound further displayed a microsomal CLint in series [5] of 38.7 µL/min/mg. In addition, the “Prepulse-induced inhibition of the acoustic startle response, drug given alone” value in series [6] (10 mg/kg given alone, effect not statistically significant) was 137 % of control. Also, the “Effect on MK-801-induced disruption of prepulse inhibition” value in series [6] (all doses (5, 10, and 15 mg/kg)) is recorded as “not antagonized”. Also, the “Motor impairments in the rotarod test (latency to fall)” value in series [8] is on record as “did not induce detectable motor impairments”.
